# Results as given in patent US11136296B2, “Substituted N-arylethyl-2-arylquinoline-4-carboxamides and use thereof” (Bayer Aktiengesellschaft, priority 2017, dated 2021).
# Target: FP receptor (Homo sapiens (Human), UniProt P43088)
# Assay: In vitro test of inhibition of human FP receptor activity (PGF2α-induced calcium flux in FP-expressing CHEM1 cells)
# Assay type: cell-based
# Details: PGF2α-induced (2 nM) calcium flux in FP-expressing CHEM1 cells; some as mean values from multiple determinations
# Excerpt: Table 1 below lists the IC50 values from this assay for individual working examples of the invention (some as mean values from multiple independent individual determinations): […]
# Chain of FP receptor (P43088 whole entry): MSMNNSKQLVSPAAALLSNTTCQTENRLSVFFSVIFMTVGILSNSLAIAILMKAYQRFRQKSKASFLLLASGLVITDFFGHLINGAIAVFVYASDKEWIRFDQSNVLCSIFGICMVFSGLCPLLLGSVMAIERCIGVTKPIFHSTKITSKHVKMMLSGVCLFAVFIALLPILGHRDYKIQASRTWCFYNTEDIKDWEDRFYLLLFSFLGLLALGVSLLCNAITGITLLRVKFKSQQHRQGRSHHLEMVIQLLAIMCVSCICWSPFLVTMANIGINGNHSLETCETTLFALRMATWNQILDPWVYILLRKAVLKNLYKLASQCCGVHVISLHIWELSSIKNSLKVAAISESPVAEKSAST
row,SMILES,IC50
1,"Cc1c(-c2ccccc2)nc2ccc(Br)cc2c1C(=O)NCC(C)(C(=O)O)c1c(F)cccc1F (single isomer, unassigned; (+)) [Example 33, (+)-3-{[(6-Bromo-3-methyl-2-phenylquinolin-4-yl)carbonyl]amino}-2-(2,6-difluorophenyl)-2-methylpropanoic Acid]",0.19 µM
2,"COc1ccc(F)cc1C(C)(CNC(=O)c1c(C)c(-c2ccccc2)nc2ccc(Br)cc12)CC(=O)O (single isomer, unassigned; (-)) [Example 134, (−)-4-{[(6-Bromo-3-methyl-2-phenylquinolin-4-yl)carbonyl]amino}-3-(5-fluoro-2-methoxyphenyl)-3-methylbutanoic Acid]",0.8 µM
3,"Cc1c(-c2ccccc2)nc2ccc(Br)cc2c1C(=O)NCC(C)(C(=O)O)c1ccccc1Cl (racemic) [Example 35, (+/−)-3-{[(6-Bromo-3-methyl-2-phenylquinolin-4-yl)carbonyl]amino}-2-(2-chlorophenyl)-2-methylpropanoic Acid]",0.19 µM
4,"COc1cccnc1C(CNC(=O)c1c(C)c(-c2ccccc2)nc2ccc(Br)cc12)CC(=O)O (single isomer, unassigned; (+)) [Example 110, (+)-4-{[(6-Bromo-3-methyl-2-phenylquinolin-4-yl)carbonyl]amino}-3-(3-methoxypyridin-2-yl)butanoic Acid]",0.075 µM
5,"Cc1c(-c2ccccc2)nc2ccc(Br)cc2c1C(=O)NCC(C(=O)O)c1ccc2c(c1)OCO2 (racemic) [Example 23, (+/−)-2-(1,3-Benzodioxol-5-yl)-3-{[(6-bromo-3-methyl-2-phenylquinolin-4-yl)carbonyl]amino}propanoic Acid]",0.53 µM
6,"Cc1c(-c2ccccc2)nc2ccc(Br)cc2c1C(=O)NCC(CCC(=O)O)c1ccccc1Cl (single isomer, unassigned; (-)) [Example 152, (−)-5-{[(6-Bromo-3-methyl-2-phenylquinolin-4-yl)carbonyl]amino}-4-(2-chlorophenyl)pentanoic Acid]",0.0079 µM
7,"Cc1c(-c2ccccc2)nc2ccc(Br)cc2c1C(=O)NCC(CC(=O)O)c1ccccc1C(F)(F)F (single isomer, unassigned; (+)) [Example 106, (+)-4-{[(6-Bromo-3-methyl-2-phenylquinolin-4-yl)carbonyl]amino}-3-[2-(trifluoromethyl)phenyl]butanoic Acid]",0.28 µM
8,"COc1cccc(F)c1C(CNC(=O)c1c(C)c(-c2ccccc2)nc2ccc(Br)cc12)C(=O)O (single isomer, unassigned; (-)) [Example 57, (−)-3-{[(6-Bromo-3-methyl-2-phenylquinolin-4-yl)carbonyl]amino}-2-(2-fluoro-6-methoxyphenyl)propanoic Acid]",0.21 µM
9,"COc1cccc(C(CNC(=O)c2c(C)c(-c3ccccc3)nc3ccc(Br)cc23)C(=O)O)c1 (single isomer, unassigned; (+)) [Example 46, (+)-3-{[(6-Bromo-3-methyl-2-phenylquinolin-4-yl)carbonyl]amino}-2-(3-methoxyphenyl)propanoic Acid]",0.23 µM
10,"Cc1c(-c2ccccc2)nc2ccc(Br)cc2c1C(=O)NCC(C)(C(=O)O)c1c(F)cccc1F (racemic) [Example 32, (+/−)-3-{[(6-Bromo-3-methyl-2-phenylquinolin-4-yl)carbonyl]amino}-2-(2,6-difluorophenyl)-2-methylpropanoic Acid]",0.15 µM
11,"COc1ccc(F)cc1C(CNC(=O)c1c(C)c(-c2ccccc2)nc2ccc(Br)cc12)CC(=O)O (single isomer, unassigned; (-)) [Example 125, (−)-4-{[(6-Bromo-3-methyl-2-phenylquinolin-4-yl)carbonyl]amino}-3-(5-fluoro-2-methoxyphenyl)butanoic Acid]",0.097 µM
12,"Cc1c(-c2ccccc2)nc2ccc(Br)cc2c1C(=O)NCC(C)(C(=O)O)c1c(F)cccc1Cl (single isomer, unassigned; (+)) [Example 61, (+)-3-{[(6-Bromo-3-methyl-2-phenylquinolin-4-yl)carbonyl]amino}-2-(2-chloro-6-fluorophenyl)-2-methylpropanoic Acid]",0.23 µM
13,"Cc1c(-c2ccccc2)nc2ccc(Br)cc2c1C(=O)NCC(c1ccccc1Cl)S(=O)(=O)CC(=O)O (single isomer, unassigned) [Example 198, (+/−)-{[2-{[(6-Bromo-3-methyl-2-phenylquinolin-4-yl)carbonyl]amino}-1-(2-chlorophenyl)ethyl]sulfonyl}acetic Acid]",0.4 µM
14,"COc1cccc(F)c1C(CNC(=O)c1c(C)c(-c2ccccc2)nc2ccc(Br)cc12)CC(=O)O (single isomer, unassigned; (-)) [Example 128, (−)-4-{[(6-Bromo-3-methyl-2-phenylquinolin-4-yl)carbonyl]amino}-3-(2-fluoro-6-methoxyphenyl)butanoic Acid]",0.11 µM

# Next, values leading:
row,IC50,SMILES
1,0.0035 µM,"Cc1c(-c2ccccc2)nc2ccc(Br)cc2c1C(=O)NCC(CCC(=O)O)c1c(F)cccc1Cl (single isomer, unassigned; (-)) [Example 158, (−)-5-{[(6-Bromo-3-methyl-2-phenylquinolin-4-yl)carbonyl]amino}-4-(2-chloro-6-fluorophenyl)pentanoic Acid]"
2,0.042 µM,"Cc1cccc(C(CNC(=O)c2c(C)c(-c3ccccc3)nc3ccc(Br)cc23)C(=O)O)c1 (single isomer, unassigned; (-)) [Example 51, (−)-3-{[(6-Bromo-3-methyl-2-phenylquinolin-4-yl)carbonyl]amino}-2-(3-methylphenyl)propanoic Acid]"
3,0.0054 µM,"O=C(O)CCC(CNC(=O)c1c(Cl)c(-c2ccccc2)nc2ccc(Br)cc12)c1ccccc1C(F)(F)F (racemic) [Example 215, (+/−)-5-{[(6-Bromo-3-chloro-2-phenylquinolin-4-yl)carbonyl]amino}-4-[2-(trifluoromethyl)phenyl]pentanoic Acid]"
4,0.043 µM,"Cc1c(-c2ccccc2)nc2ccc(Br)cc2c1C(=O)NCC(C(=O)O)c1cccc(Cl)c1 (racemic) [Example 47, (+/−)-3-{[(6-Bromo-3-methyl-2-phenylquinolin-4-yl)carbonyl]amino}-2-(3-chlorophenyl)propanoic Acid]"
5,0.0072 µM,COc1ccccc1[C@H](CNC(=O)c1c(C)c(-c2ccccc2)nc2ccc(Br)cc12)N1CCC(C(=O)O)C1 (stereo partly drawn) [compound 247]
6,0.0092 µM,"Cc1c(-c2ccccc2)nc2ccc(Br)cc2c1C(=O)NCC(CCC(=O)O)c1c(F)cccc1F (racemic) [Example 181, (+/−)-5-{[(6-Bromo-3-methyl-2-phenylquinolin-4-yl)carbonyl]amino}-4-(2,6-difluorophenyl)pentanoic Acid]"
7,0.0066 µM,"Cc1c(-c2ccccc2)nc2ccc(Br)cc2c1C(=O)NCC(CCC(=O)O)c1cc(F)ccc1Cl (single isomer, unassigned; (+)) [Example 165, (+)-5-{[(6-Bromo-3-methyl-2-phenylquinolin-4-yl)carbonyl]amino}-4-(2-chloro-5-fluorophenyl)pentanoic Acid]"
8,0.023 µM,"Cc1c(-c2ccccc2)nc2ccc(Br)cc2c1C(=O)NCC(CCC(=O)O)c1c(F)cccc1F (single isomer, unassigned; (+)) [Example 183, (+)-5-{[(6-Bromo-3-methyl-2-phenylquinolin-4-yl)carbonyl]amino}-4-(2,6-difluorophenyl)pentanoic Acid]"
9,0.015 µM,"Cc1c(-c2ccccc2)nc2ccc(Br)cc2c1C(=O)NCC(CCC(=O)O)c1ccccc1F (racemic) [Example 175, (+/−)-5-{[(6-Bromo-3-methyl-2-phenylquinolin-4-yl)carbonyl]amino}-4-(2-fluorophenyl)pentanoic Acid]"
10,0.015 µM,"COc1cccc(F)c1C(C)(CNC(=O)c1c(C)c(-c2ccccc2)nc2ccc(Br)cc12)CC(=O)O (racemic) [Example 142, (+/−)-4-{[(6-Bromo-3-methyl-2-phenylquinolin-4-yl)carbonyl]amino}-3-(2-fluoro-6-methoxyphenyl)-3-methylbutanoic Acid]"
11,0.005 µM,"O=C(O)CCC(CNC(=O)c1c(Cl)c(-c2ccccc2)nc2ccc(Br)cc12)c1ccccc1C(F)(F)F (single isomer, unassigned; (-)) [Example 216, (−)-5-{[(6-Bromo-3-chloro-2-phenylquinolin-4-yl)carbonyl]amino}-4-[2-(trifluoromethyl)phenyl]pentanoic Acid]"
12,0.044 µM,"Cc1c(-c2ccccc2)nc2ccc(Br)cc2c1C(=O)NCC(C)(C(=O)O)c1ncccc1Cl (racemic) [Example 26, (+/−)-3-{[(6-Bromo-3-methyl-2-phenylquinolin-4-yl)carbonyl]amino}-2-(3-chloropyridin-2-yl)-2-methylpropanoic Acid]"
13,0.016 µM,"Cc1c(-c2ccccc2)nc2ccc(Br)cc2c1C(=O)NCC(C)(CCCC(=O)O)c1ccccc1Cl (single isomer, unassigned; (+)) [Example 242, (+)-6-{[(6-Bromo-3-methyl-2-phenylquinolin-4-yl)carbonyl]amino}-5-(2-chlorophenyl)-5-methylhexanoic Acid]"
14,0.0042 µM,"Cc1c(-c2ccccc2)nc2ccc(Br)cc2c1C(=O)NCC(CCC(=O)O)c1c(F)c(F)cc(F)c1F (racemic) [Example 228, (+/−)-5-{[(6-Bromo-3-methyl-2-phenylquinolin-4-yl)carbonyl]amino}-4-(2,3,5,6-tetrafluorophenyl)pentanoic Acid]"
15,0.025 µM,"Cc1c(-c2ccccc2)nc2ccc(Br)cc2c1C(=O)NCC(c1ccccc1Cl)S(=O)(=O)CC(=O)O (single isomer, unassigned) [Example 199, {[2-{[(6-Bromo-3-methyl-2-phenylquinolin-4-yl)carbonyl]amino}-1-(2-chlorophenyl)ethyl]sulfonyl}acetic Acid]"
16,0.053 µM,"Cc1c(-c2ccccc2)nc2ccc(Br)cc2c1C(=O)NCC(C)(C(=O)O)c1ccccc1 (single isomer, unassigned; (-)) [Example 14, (−)-3-{[(6-Bromo-3-methyl-2-phenylquinolin-4-yl)carbonyl]amino}-2-methyl-2-phenylpropanoic Acid]"
